This is an account of results in patent US20240158370A1, “CK1 alpha AND DUAL CK1 alpha / GSPT1 DEGRADING COMPOUNDS” (Innovo Therapeutics, Inc., priority 2022, published 2024).

One may read the DC50 as the concentration at which degradation of the target reaches its halfway point. Read a high DC50 as degradation only at high concentration.

One experiment deals with GSPT1 (Homo sapiens, UniProt P15170+Q96SW2). The experiment is described as follows: HiBiT degradation assay, GSPT1, Procedure A. The experiment is classed as cell-based. The arrangement: HiBit-GSPT1 KI HEK293(LgBit) Cells; host or cells: HEK293(LgBit) knock-in cells. An outline of the steps: (§1)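 Luminescence from HiBiT lytic detection reports remaining tagged protein after cells sit six hours at 37° C with compound across ten concentrations (10 μM down to 0.005 μM, 0.1% DMSO). A 4-parameter curve fit gives DC50 and Ymin.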

Another experiment addresses T1, CK1α (Homo sapiens, UniProt P48729+Q96SW2).
T1 construct: CSNK1A1-HiBit KI HEK293(LgBit) Cells; host or cells: HEK293(LgBit) knock-in cells
The experiment in a line: HiBiT degradation assay, CK1α, Procedure A. The experiment is classed as cell-based. In short, it runs like this: as §1

SMILES strings stand for the structures. Bounds are passed on as bounds.

T1 sequence (P48729 whole entry): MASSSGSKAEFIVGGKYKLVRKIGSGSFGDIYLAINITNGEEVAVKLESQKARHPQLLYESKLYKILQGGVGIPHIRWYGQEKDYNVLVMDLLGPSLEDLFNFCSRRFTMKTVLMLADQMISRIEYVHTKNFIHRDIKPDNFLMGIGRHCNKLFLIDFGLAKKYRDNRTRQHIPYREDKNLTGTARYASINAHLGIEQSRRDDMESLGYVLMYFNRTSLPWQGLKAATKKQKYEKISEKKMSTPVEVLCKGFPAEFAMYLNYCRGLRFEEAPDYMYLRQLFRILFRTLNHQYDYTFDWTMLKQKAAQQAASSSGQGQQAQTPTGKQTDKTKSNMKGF
T1 sequence (Q96SW2 whole entry): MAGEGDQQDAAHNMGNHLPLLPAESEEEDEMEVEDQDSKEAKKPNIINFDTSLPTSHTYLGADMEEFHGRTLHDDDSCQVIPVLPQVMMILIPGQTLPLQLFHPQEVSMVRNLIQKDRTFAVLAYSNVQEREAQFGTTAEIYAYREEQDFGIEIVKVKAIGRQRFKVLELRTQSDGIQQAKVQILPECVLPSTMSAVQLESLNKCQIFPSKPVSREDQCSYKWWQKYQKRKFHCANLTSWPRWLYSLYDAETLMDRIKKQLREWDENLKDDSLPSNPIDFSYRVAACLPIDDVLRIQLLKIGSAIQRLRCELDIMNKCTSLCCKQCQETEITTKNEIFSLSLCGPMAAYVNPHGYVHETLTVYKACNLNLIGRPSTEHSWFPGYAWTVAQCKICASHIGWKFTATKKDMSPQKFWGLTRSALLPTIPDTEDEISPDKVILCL
T1 sequence (Q16531 whole entry partner): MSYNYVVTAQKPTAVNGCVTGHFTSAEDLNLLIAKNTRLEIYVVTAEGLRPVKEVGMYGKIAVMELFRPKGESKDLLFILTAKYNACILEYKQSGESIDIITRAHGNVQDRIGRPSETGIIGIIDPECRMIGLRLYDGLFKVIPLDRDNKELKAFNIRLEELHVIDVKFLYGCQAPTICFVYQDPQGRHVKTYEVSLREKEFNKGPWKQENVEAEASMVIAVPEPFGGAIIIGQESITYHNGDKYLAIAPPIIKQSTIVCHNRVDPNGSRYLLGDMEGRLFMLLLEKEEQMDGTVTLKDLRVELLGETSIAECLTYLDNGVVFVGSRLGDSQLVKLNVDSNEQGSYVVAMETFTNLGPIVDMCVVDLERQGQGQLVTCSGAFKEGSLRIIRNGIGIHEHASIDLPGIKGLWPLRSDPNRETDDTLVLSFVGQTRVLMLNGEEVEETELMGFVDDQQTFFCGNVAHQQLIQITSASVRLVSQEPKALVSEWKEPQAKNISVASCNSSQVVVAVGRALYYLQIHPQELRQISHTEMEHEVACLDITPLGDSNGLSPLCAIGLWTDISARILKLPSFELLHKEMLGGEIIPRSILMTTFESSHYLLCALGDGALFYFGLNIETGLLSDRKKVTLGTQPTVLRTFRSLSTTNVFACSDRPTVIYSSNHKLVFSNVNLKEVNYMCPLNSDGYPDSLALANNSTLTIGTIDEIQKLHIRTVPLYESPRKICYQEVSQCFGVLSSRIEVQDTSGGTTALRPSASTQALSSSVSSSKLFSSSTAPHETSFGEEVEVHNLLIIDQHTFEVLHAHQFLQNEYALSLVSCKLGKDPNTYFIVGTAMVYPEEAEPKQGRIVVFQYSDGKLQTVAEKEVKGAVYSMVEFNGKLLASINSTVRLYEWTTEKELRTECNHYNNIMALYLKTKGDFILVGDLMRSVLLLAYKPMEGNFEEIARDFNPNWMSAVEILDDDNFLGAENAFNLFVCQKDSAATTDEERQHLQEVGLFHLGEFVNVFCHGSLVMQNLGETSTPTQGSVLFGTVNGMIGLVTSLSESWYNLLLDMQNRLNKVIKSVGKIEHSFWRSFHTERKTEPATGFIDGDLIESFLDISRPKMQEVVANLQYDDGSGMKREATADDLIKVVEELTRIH
Chain of GSPT1 (P15170 whole entry): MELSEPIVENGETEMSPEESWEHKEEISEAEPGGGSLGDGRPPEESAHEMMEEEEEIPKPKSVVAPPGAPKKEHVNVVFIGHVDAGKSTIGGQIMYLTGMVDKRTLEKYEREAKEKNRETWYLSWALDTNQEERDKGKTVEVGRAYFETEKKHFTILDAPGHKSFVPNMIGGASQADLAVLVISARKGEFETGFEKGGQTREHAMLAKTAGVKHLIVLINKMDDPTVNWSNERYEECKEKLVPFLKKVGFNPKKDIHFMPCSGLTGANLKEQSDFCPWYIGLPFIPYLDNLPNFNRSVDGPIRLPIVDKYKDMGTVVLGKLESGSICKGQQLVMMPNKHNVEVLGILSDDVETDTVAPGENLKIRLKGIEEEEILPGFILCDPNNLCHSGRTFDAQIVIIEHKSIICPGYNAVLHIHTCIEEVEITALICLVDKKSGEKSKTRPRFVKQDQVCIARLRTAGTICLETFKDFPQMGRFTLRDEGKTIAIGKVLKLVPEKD
Chain of GSPT1 (Q96SW2 whole entry): as the sequence (Q96SW2 whole entry) above
Chain of GSPT1 (Q16531 whole entry partner): as the sequence (Q16531 whole entry partner) above

Regarding `Cn1nc(-c2ccc3c(c2)CN(C2CCC(=O)NC2=O)C3=O)nc1C1CCOCC1` (stereo not shown) [Example 599, 3-(5-(1-methyl-5-(tetrahydro-2H-pyran-4-yl)-1H-1,2,4-triazol-3-yl)-1-oxoisoindolin-2-yl)piperidine-2,6-dione], on GSPT1 (six hours), the DC50 is not below 0.025 µM and the “GSPT1 Ymin” value is on record as “F (F = >75-100% remaining)”. In addition, at CK1α (six hours), the “CK1α Ymin” value is recorded as “E (E = >25-75% remaining)” and the 50% degradation concentration (DC50) was less than 0.025 µM.
Take `Cc1ccc(Cl)cc1-c1c(-c2ccc3c(c2)CN(C2CCC(=O)NC2=O)C3=O)ncn1C` (stereo not shown) [Example 196]: on GSPT1 (six hours incubation), the 50% degradation concentration (DC50) is less than 0.025 µM and the “GSPT1 Ymin” value is recorded as “F (F = >75-100% remaining)”. Moreover, on CK1α (six hours incubation), the “CK1α Ymin” value is “E (E = >25-75% remaining)” and the DC50 is less than 0.025 µM.
Turning to `Cn1ncc(-c2ccc3c(c2)CN(C2CCC(=O)NC2=O)C3=O)c1-c1ccc(C#N)cc1` (stereo not shown) [Example 57], on GSPT1 (six hours incubation), the DC50 was not below 0.025 µM and the “GSPT1 Ymin” value is recorded as “F (F = >75-100% remaining)”. On CK1α (six hours incubation), the “CK1α Ymin” value is given as “E (E = >25-75% remaining)” and the DC50 is not below 0.025 µM.
For `Cc1c(-c2c(-c3ccc4c(c3)CN(C3CCC(=O)NC3=O)C4=O)ncn2C)cnn1C` (stereo not shown) [Example 322], at GSPT1 (six hours incubation), the DC50 was less than 0.025 µM and the “GSPT1 Ymin” value is given as “F (F = >75-100% remaining)”. For the same compound, at CK1α (six hours incubation), the “CK1α Ymin” value is on record as “C (C = 0-10% remaining)” and the DC50 was less than 0.025 µM.
For `Cn1cc(-c2ccc3c(c2)CN(C2CCC(=O)NC2=O)C3=O)nc1-c1ccoc1` (stereo not shown) [Example 559], at GSPT1 (six hours), the DC50 was less than 0.025 µM and the “GSPT1 Ymin” value was “F (F = >75-100% remaining)”. Moreover, on CK1α (six hours), the “CK1α Ymin” value was “C (C = 0-10% remaining)” and the DC50 was less than 0.025 µM.
Take `Cn1ncc(-c2ccc3c(c2)CN(C2CCC(=O)NC2=O)C3=O)c1-c1ccc(CN2CCNCC2)cc1` (stereo not shown) [Example 414]: at GSPT1 (six hours), the DC50 was not below 0.025 µM and the “GSPT1 Ymin” value is listed as “F (F = >75-100% remaining)”. At CK1α (six hours), the “CK1α Ymin” value is on record as “E (E = >25-75% remaining)” and the DC50 is not below 0.025 µM.
With `Cn1ncc(-c2ccc3c(c2)CN(C2CCC(=O)NC2=O)C3=O)c1-c1cccc(Cl)c1` (stereo not shown) [Example 129], on GSPT1 (six hours incubation), the DC50 was not below 0.025 µM and the “GSPT1 Ymin” value is “F (F = >75-100% remaining)”. In addition, on CK1α (six hours incubation), the “CK1α Ymin” value is given as “E (E = >25-75% remaining)” and the DC50 is less than 0.025 µM.
For `Cn1cnc(-c2ccc3c(c2)CN(C2CCC(=O)NC2=O)C3=O)c1-c1ccc2ccn(C)c2c1` (stereo not shown) [Example 529], at GSPT1 (six hours), the DC50 is less than 0.025 µM and the “GSPT1 Ymin” value was “F (F = >75-100% remaining)”. Moreover, on CK1α (six hours), the “CK1α Ymin” value is “D (D = >10- 25% remaining)” and the DC50 is less than 0.025 µM.
On to `Cn1ncc(-c2ccc3c(c2)CN(C2CCC(=O)NC2=O)C3=O)c1-c1ccc(-c2cccnc2)cc1` (stereo not shown) [Example 103], for which, on GSPT1 (six hours incubation), the DC50 was not below 0.025 µM and the “GSPT1 Ymin” value was “F (F = >75-100% remaining)”. At CK1α (six hours incubation), the “CK1α Ymin” value is “D (D = >10- 25% remaining)” and the 50% degradation concentration (DC50) was less than 0.025 µM.
In the case of `Cn1cnc(-c2ccc3c(c2)CN(C2CCC(=O)NC2=O)C3=O)c1-c1ccc(Cl)cc1Cl` (stereo not shown) [Example 286], on GSPT1 (six hours incubation), the 50% degradation concentration (DC50) was less than 0.025 µM and the “GSPT1 Ymin” value was “E (E = >25-75% remaining)”. In addition, at CK1α (six hours incubation), the “CK1α Ymin” value is listed as “D (D = >10- 25% remaining)” and the DC50 was less than 0.025 µM.
Turning to `Cn1cnc(-c2ccc3c(c2)CN(C2CCC(=O)NC2=O)C3=O)c1-c1ccc2[nH]ccc2c1` (stereo not shown) [Example 346], on GSPT1 (six hours incubation), the half-maximal degradation concentration (DC50) was not below 0.025 µM and the “GSPT1 Ymin” value is listed as “F (F = >75-100% remaining)”. Further, on CK1α (six hours incubation), the “CK1α Ymin” value is on record as “D (D = >10- 25% remaining)” and the DC50 was less than 0.025 µM.
Consider `Cn1cnc(-c2ccc3c(c2)CN(C2CCC(=O)NC2=O)C3=O)c1-c1ccc2c(ccn2C)c1` (stereo not shown) [Example 496], for which, on GSPT1 (six hours), the 50% degradation concentration (DC50) is less than 0.025 µM and the “GSPT1 Ymin” value was “E (E = >25-75% remaining)”. In addition, at CK1α (six hours), the “CK1α Ymin” value is “C (C = 0-10% remaining)” and the DC50 was less than 0.025 µM.
In the case of `CC(C)Cn1cnc(-c2ccc3c(c2)CN(C2CCC(=O)NC2=O)C3=O)c1-c1ccccc1` (stereo not shown) [Example 22, 3-(5-(1-Isobutyl-5-phenyl-1H-imidazol-4-yl)-1-oxoisoindolin-2-yl)piperidine-2,6-dione], at GSPT1 (six hours incubation), the DC50 is less than 0.025 µM and the “GSPT1 Ymin” value is on record as “E (E = >25-75% remaining)”. On CK1α (six hours incubation), the “CK1α Ymin” value is “C (C = 0-10% remaining)” and the DC50 was less than 0.025 µM.
In the case of `Cc1cc(-c2c(-c3ccc4c(c3)CN(C3CCC(=O)NC3=O)C4=O)cnn2C)c(C)s1` (stereo not shown) [Example 213], on GSPT1 (six hours incubation), the DC50 was not below 0.025 µM and the “GSPT1 Ymin” value is “F (F = >75-100% remaining)”. At CK1α (six hours incubation), the “CK1α Ymin” value was “E (E = >25-75% remaining)” and the half-maximal degradation concentration (DC50) is less than 0.025 µM.
On to `COc1ccc(-c2c(-c3ccc4c(c3)CN(C3CCC(=O)NC3=O)C4=O)cnn2C(F)F)cc1F` (stereo not shown) [Example 417, 3-(5-(1-(difluoromethyl)-5-(3-fluoro-4-methoxyphenyl)-1H-pyrazol-4-yl)-1-oxoisoindolin-2-yl)piperidine-2,6-dione], for which, on GSPT1 (six hours), the DC50 was not below 0.025 µM and the “GSPT1 Ymin” value is reported as “F (F = >75-100% remaining)”. At CK1α (six hours), the “CK1α Ymin” value is reported as “D (D = >10- 25% remaining)” and the DC50 was less than 0.025 µM.
On the same counts, the results for `Cc1ccc(-c2c(-c3ccc4c(c3)CN(C3CCC(=O)NC3=O)C4=O)ncn2C)cn1` (stereo not shown) [Example 397] are not below 0.025 µM, “F (F = >75-100% remaining)”, “D (D = >10- 25% remaining)” and not below 0.025 µM.
For `O=C1CCC(N2Cc3cc(-c4cnn(C(F)(F)F)c4-c4ccccc4)ccc3C2=O)C(=O)N1` (stereo not shown) [Example 333, 3-(1-oxo-5-(5-phenyl-1-(trifluoromethyl)-1H-pyrazol-4-yl)isoindolin-2-yl)piperidine-2,6-dione], at GSPT1 (six hours incubation), the DC50 is not below 0.025 µM and the “GSPT1 Ymin” value is on record as “E (E = >25-75% remaining)”. Moreover, at CK1α (six hours incubation), the “CK1α Ymin” value is listed as “E (E = >25-75% remaining)” and the DC50 was less than 0.025 µM.
On to `Cn1cnc(-c2ccc3c(c2)CN(C2CCC(=O)NC2=O)C3=O)c1-c1cccc(C(N)=O)c1` (stereo not shown) [Example 248], for which, on GSPT1 (six hours incubation), the DC50 was not below 0.025 µM and the “GSPT1 Ymin” value is on record as “E (E = >25-75% remaining)”. At CK1α (six hours incubation), the “CK1α Ymin” value is reported as “D (D = >10- 25% remaining)” and the 50% degradation concentration (DC50) is not below 0.025 µM.
As for `O=C1CCC(N2Cc3cc(-n4cnc(-c5ccccc5)c4)ccc3C2=O)C(=O)N1` (stereo not shown) [Example 552, 3-(1-oxo-5-(4-phenyl-1H-imidazol-1-yl)isoindolin-2-yl)piperidine-2,6-dione], on GSPT1 (six hours), the DC50 was not below 0.025 µM and the “GSPT1 Ymin” value is listed as “F (F = >75-100% remaining)”. On CK1α (six hours), the “CK1α Ymin” value is “E (E = >25-75% remaining)” and the 50% degradation concentration (DC50) is not below 0.025 µM.
As for `COc1c(F)cccc1-c1c(-c2ccc3c(c2)CN(C2CCC(=O)NC2=O)C3=O)cnn1C` (stereo not shown) [Example 107], on GSPT1 (six hours incubation), the DC50 was not below 0.025 µM and the “GSPT1 Ymin” value was “F (F = >75-100% remaining)”. Moreover, on CK1α (six hours incubation), the “CK1α Ymin” value is on record as “E (E = >25-75% remaining)” and the DC50 is less than 0.025 µM.
In the case of `Cc1ncc(-c2c(-c3ccc4c(c3)CN(C3CCC(=O)NC3=O)C4=O)nc(C3CC3)n2C)cn1` (stereo not shown) [Example 547, 3-(5-(2-cyclopropyl-1-methyl-5-(2-methylpyrimidin-5-yl)-1H-imidazol-4-yl)-1-oxoisoindolin-2-yl)piperidine-2,6-dione], on GSPT1 (six hours), the DC50 was not below 0.025 µM and the “GSPT1 Ymin” value is “F (F = >75-100% remaining)”. Besides, on CK1α (six hours), the “CK1α Ymin” value was “D (D = >10- 25% remaining)” and the half-maximal degradation concentration (DC50) was less than 0.025 µM.
On the same counts, the results for `Cn1ncc(-c2ccc3c(c2)CN(C2CCC(=O)NC2=O)C3=O)c1-c1ccc2ncn(C)c2c1` (stereo not shown) [Example 463] are not below 0.025 µM, “F (F = >75-100% remaining)”, “D (D = >10- 25% remaining)” and not below 0.025 µM.
The like results for `Cn1ncc(-c2ccc3c(c2)CN(C2CCC(=O)NC2=O)C3=O)c1C1CCOC1` (stereo not shown) [Example 592] were, in that order, not below 0.025 µM, “F (F = >75-100% remaining)”, “E (E = >25-75% remaining)” and not below 0.025 µM.
Take `O=C1CCC(N2Cc3cc(-c4nc(-c5ccccc5)co4)ccc3C2=O)C(=O)N1` (stereo not shown) [Example 42, 3-(1-Oxo-5-(4-phenyloxazol-2-yl)isoindolin-2-yl)piperidine-2,6-dione]: on GSPT1 (six hours incubation), the DC50 is not below 0.025 µM and the “GSPT1 Ymin” value is reported as “F (F = >75-100% remaining)”. In addition, at CK1α (six hours incubation), the “CK1α Ymin” value is given as “E (E = >25-75% remaining)” and the DC50 was less than 0.025 µM.
The like results for `Cc1cccc(-c2c(-c3ccc4c(c3)CN(C3CCC(=O)NC3=O)C4=O)ncn2C)c1` (stereo not shown) [Example 162] were, in that order, less than 0.025 µM, “E (E = >25-75% remaining)”, “C (C = 0-10% remaining)” and less than 0.025 µM.
Turning to `COc1ccc(-c2nc(-c3ccc4c(c3)CN(C3CCC(=O)NC3=O)C4=O)cn2C)cc1Cl` (stereo not shown) [Example 584], on GSPT1 (six hours), the half-maximal degradation concentration (DC50) is not below 0.025 µM and the “GSPT1 Ymin” value was “F (F = >75-100% remaining)”. For the same compound, on CK1α (six hours), the “CK1α Ymin” value is given as “C (C = 0-10% remaining)” and the DC50 was less than 0.025 µM.
For `Cn1ncc(-c2ccc3c(c2)CN(C2CCC(=O)NC2=O)C3=O)c1-c1ccc(CN2CCOCC2)cc1` (stereo not shown) [Example 214], on GSPT1 (six hours incubation), the DC50 is not below 0.025 µM and the “GSPT1 Ymin” value is recorded as “F (F = >75-100% remaining)”. Besides, on CK1α (six hours incubation), the “CK1α Ymin” value is listed as “E (E = >25-75% remaining)” and the DC50 was less than 0.025 µM.
The like results for `Cn1cnc(-c2ccc3c(c2)CN(C2CCC(=O)NC2=O)C3=O)c1-c1cc(F)cc(C#N)c1` (stereo not shown) [Example 185] were, in that order, not below 0.025 µM, “F (F = >75-100% remaining)”, “D (D = >10- 25% remaining)” and less than 0.025 µM.
